Several values for one entry are separate records, joined by “and”; a condition that tells them apart may be missing. Equal entries are not always repeated.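 Five compound concentrations were applied to cells in 96-well plates for 48 hours; endpoints were derived by simple linear interpolation of the resulting dose-response curve. GI50 = concentration required for 50% inhibition of growth. TGI denotes the concentration required for complete inhibition of growth.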
Assays:
Experiment in all cases: growth of human tumour cells (NCI), 48 h
A498 renal = test system: A498 renal
NCI-H23 lung = test system: NCI-H23 lung
OVCAR-5 ovarian = test system: OVCAR-5 ovarian
RXF 393 renal = test system: RXF 393 renal
SK-MEL-5 melanoma = test system: SK-MEL-5 melanoma
SK-OV-3 ovarian = test system: SK-OV-3 ovarian
SNB-75 CNS = test system: SNB-75 CNS
T-47D breast = test system: T-47D breast
TK-10 renal = test system: TK-10 renal
UACC-62 melanoma = test system: UACC-62 melanoma

| Compound | TGI (A498 renal) | TGI (NCI-H23 lung) | TGI (OVCAR-5 ovarian) | TGI (RXF 393 renal) [µM] | TGI (SK-MEL-5 melanoma) | TGI (SK-OV-3 ovarian) | TGI (SNB-75 CNS) [µM] | TGI (T-47D breast) [µM] | TGI (TK-10 renal) [µM] | TGI (UACC-62 melanoma) | GI50 (A498 renal) [µM] | GI50 (NCI-H23 lung) [µM] | GI50 (OVCAR-5 ovarian) [µM] | GI50 (RXF 393 renal) [µM] | GI50 (SK-MEL-5 melanoma) [µM] | GI50 (SK-OV-3 ovarian) [µM] | GI50 (SNB-75 CNS) [µM] | GI50 (T-47D breast) [µM] | GI50 (TK-10 renal) [µM] | GI50 (UACC-62 melanoma) [µM] |
| --- | --- | --- | --- | --- | --- | --- | --- | --- | --- | --- | --- | --- | --- | --- | --- | --- | --- | --- | --- | --- |
| COc1ccc(CCN2C(=O)C=CC2=O)cc1OC | 33.1 µM | 53.8 µM | 35.6 µM | 19.9 | 31.5 µM | 33 µM | 36.1 | 31.9 | 33.2 | 31 µM |  |  |  |  |  |  |  |  |  |  |
| COc1cc(O)c2c(O)c3c(c4c2c1[C@]1(C4)C(C)=CCCC1(C)C)[C@H](O)[C@@]1(O)CC(=O)C(C(N)=O)=C(O)[C@@]1(O)C3=O | 0.743 µM | 1.34 µM | 1.23 µM | 2.13 | 0.399 µM | 1.43 µM | 0.794 | 1.81 | 1.18 | 1.95 µM |  |  |  |  |  |  |  |  |  |  |
| N#C/C(=C\c1ccc(-c2ccc(Cl)cc2)o1)C(=O)Nc1ncc(Cc2ccc(Cl)cc2)s1 | 4.19 µM | 4.17 µM | > 100 µM | 6.85 | 7.41 µM | 9.52 µM | 3.89 | 5.2 | 3.71 | 6.57 µM | 1.58 | 1.82 | 3.73 | 2.32 | 2.51 | 3.24 | 1.38 | 1.91 | 2 | 2.11 |
| Cn1c2ccccc2c(=S)c2ccccc21 | > 100 µM | > 100 µM | > 100 µM | > 100 | > 100 µM | > 100 µM | > 100 | > 100 | > 100 | > 100 µM |  |  |  |  |  |  |  |  |  |  |
| Cn1cc(-c2nc(-c3c[nH]c4ncccc34)cs2)c2cc(F)ccc21 | 7.48 µM | 10.1 µM | 6.63 µM | 9.14 | 11.5 µM | 32.3 µM | 10.1 | 4.43 | 15.3 | 17.2 µM | 2.03 | 2.4 | 1.25 | 2.49 | 2.6 | 3.9 | 2.78 | 0.0443 | 2.78 | 3.65 |
| C/C=C(\C)C(=O)N[C@H]1CC[C@]2(C)C3CC[C@@]4(C)C(CC[C@@H]4C(C)N(C)C)C3CCC2[C@H]1OC(C)=O (stereo partly specified) | 3.51 µM | 5.01 µM | 5.65 µM | 3.03 | 2.3 µM | 4.27 µM | 3.59 | 5.42 | 4.59 | 3.74 µM | 1.43 | 1.91 | 2.06 | 1.57 | 1.05 | 2.06 | 1.65 | 1.74 | 2.16 | 1.95 |
| COc1cc2c3c(n(CCCCOC(=O)C(F)(F)F)c(=O)c2cc1OC)-c1cc2c(cc1C3=O)OCO2 | > 100 µM | > 100 µM | > 100 µM | > 100 | > 100 µM | > 100 µM | > 100 | > 100 | > 100 | > 100 µM | > 44.4 | > 100 | > 100 | > 100 | > 100 | > 100 | > 86.8 | > 100 | > 100 | > 100 |
| Cn1cc(C2=C(c3cccc4ccccc34)C(=O)NC2=O)c2ccccc21 | 22.5 µM | > 25 µM | > 25 µM | 9.93 | 11.9 µM | > 25 µM | > 25 | 24.5 | > 23.9 | > 25 µM | 6.76 | 8.92 | 12.8 | 4.41 | 5.1 | 8.35 | 3.73 | 6.32 | 9.14 | 8.33 |
| O=C1NN(c2ccc(C(=O)O)cc2)C(=O)/C1=C\c1ccc([N+](=O)[O-])o1 | > 100 µM | > 100 µM | > 100 µM | > 100 | > 100 µM | > 100 µM | > 100 | 50 | 66.8 | > 100 µM | > 100 | 75.1 | > 100 | 40.7 | > 100 | > 100 | > 100 | 21.4 | 25.5 | 62 |
| Cc1nn(-c2nc3ccccc3s2)c(C)c1Oc1ccccc1O | 23.6 µM | 26.3 µM | 25.7 µM | 8.38 | 15.3 µM | 24.8 µM | 24.3 | 34.4 | 31.9 | 18.1 µM | 11.4 | 12.3 | 12.5 | 3.09 | 1.3 | 7.57 | 1.73 | 8.63 | 13.9 | 2.91 |
| CCCN(CCC)C(=O)C1=Cc2ccc(-c3ccc(C(=O)N4CCCC4)cc3)cc2N=C(N)C1 | 71.1 µM | 38.9 µM | 64.9 µM | 19.3 | 10.9 µM | 87 µM | 30.6 | 26.8 | 70.1 | 26.4 µM | 9.01 | 8.92 | 20.1 | 5.13 | 2.91 | 18.2 | 3.8 | 3.56 | 19.6 | 9.17 |
| COc1cc(-c2nc(Nc3nc4ccccc4[nH]3)nc(N)c2C#N)cc(OC)c1OC | 22 µM | 40.2 µM | > 86.4 µM | 23.7 | 16.2 µM | 56.8 µM | 49.9 | 52.8 | > 100 | > 59.7 µM | 0.424 | 12.2 | 27.8 | 0.378 | 0.414 | 4.4 | 0.308 | 4.27 | 30.7 | 4.65 |
| COc1cc(C(=O)c2ccc3c(c2)OCO3)cc(OC)c1OC | 7.93 µM | > 100 µM | > 100 µM | 17.1 | > 21.5 µM | 33.1 µM | 5.03 | > 100 | > 100 | > 100 µM | 1.75 | 4.93 | 8.96 | 2.88 | 1.88 | 2.84 | 1.39 | 5.3 | 4.44 | 2.62 |
| Cn1ccnc1C(=O)/C=C/c1ccc(C(=O)Nc2ccc(Cl)cc2)cc1 | > 33.3 µM | 7.62 µM | 5.64 µM | 2.66 | 7.04 µM | > 33.3 µM | > 33.3 | > 33.3 | 17.2 | 7.59 µM | 0.661 | 1.25 | 1.1 | 0.836 | 2.35 | 1.87 | 0.615 | 0.846 | 0.973 | 1.55 |
| COC(=O)Nc1nc2ccc(Oc3ccc(NC(=O)Nc4cccc(C(=O)O)c4)cc3)cc2[nH]1 | > 25 µM | > 25 µM | > 25 µM | 10.9 | > 21 µM | 16.3 µM | > 25 | > 25 | > 25 | > 25 µM | 4.98 | 9.64 | 12 | 3.37 | 3.24 | 5.53 | 9.98 | > 14.2 | > 23.1 | 5.35 |
| COc1ccc2nc(-c3cc(-c4cc(OC)c(OC)c(OC)c4)n[nH]3)[nH]c2c1 | 10.2 µM | 4.91 µM | 12.6 µM | 12.3 | 1.77 µM | 9.17 µM | 6.34 | 1.92 | 7.58 | 2.52 µM | 2.23 | 1.34 | 3.03 | 2.49 | 0.462 | 2.83 | 2.23 | 0.346 | 2.21 | 1.12 |
| CC1=C[C@H]2c3c(c(O)c(O)c4oc5c(C)cccc5c(=O)c34)[C@H](c3cc(O)c(O)c4oc5c(C)cccc5c(=O)c34)[C@H]2C(C)(C)C1 | 5.35 µM | 3.42 µM | 10.6 µM | 3.26 | 2.78 µM | 9.96 µM | 6.77 | 14.1 | 11.7 | 3.27 µM | 1.85 | 1.24 | 2.65 | 1.22 | 1.43 | 2.46 | 1.4 | 2.51 | 2.51 | 1.6 |
| Cn1nccc1Nc1nccc(-c2cc3c(s2)C(C)(C)N(CCN2CCOCC2)C3=O)n1 | 5.99 µM | > 100 µM | > 100 µM | > 85.3 | 58 µM | > 86.2 µM | > 100 | > 77.7 | > 100 | > 100 µM | 0.659 | 0.858 | 0.498 | 4.73 | 1.31 | 17 | 15.9 | 17.4 | 1.31 | 0.274 |
| CC1=CC(=NC(=O)CBr)C=C/C1=N\S(=O)(=O)c1ccccc1 | 28.2 µM | 5.99 µM | 6.86 µM | 3.89 | 3.98 µM | 27.7 µM | 30.4 | 5.04 | 7.04 | 10.7 µM | 14.3 | 2.36 | 2.65 | 1.77 | 1.79 | 14.2 | 13.5 | 2.1 | 2.85 | 2.58 |
| CC(=O)N1N=C2/C(=C/c3ccccc3)CC(C)CC2C1c1ccccc1 (stereo unspecified) | 30.7 µM | 28 µM | 32.2 µM | > 100 | 25.4 µM | 40.3 µM | 30.9 | 34.7 | 44.9 | 26 µM | 16.5 | 14.4 | 17.7 | 25.6 | 11.6 | 17.1 | 15.6 | 10.7 | 19.7 | 12.6 |
| O=[N+]([O-])c1ccc(Br)c([N+](=O)[O-])c1 | 27.7 µM | 3.66 µM | 3.5 µM | 3.36 | 5.64 µM | 20.6 µM | 4.36 | 4.94 | 6.22 | 6.87 µM | 14.3 | 1.82 | 1.77 | 1.83 | 2.3 | 8.37 | 1.69 | 2.13 | 2.3 | 2.56 |
| Cc1cc(N2CCCCC2)nc(N(CCCNc2ccnc3cc(Cl)ccc23)Cc2ccco2)n1 | 9.39 µM | 3.8 µM | 15 µM | 3.44 | 3.06 µM | 13.2 µM | 16.8 | 4.44 | 8.12 | 3.73 µM | 2.66 | 1.58 | 3 | 1.52 | 1.67 | 3.35 | 3.36 | 1.77 | 2.63 | 1.89 |
| CCOc1cccc(/C=N/NC(=O)c2ccc(Nc3ccnc(C(F)(F)F)c3)cc2)c1O | > 58 µM | 38.6 µM | > 100 µM | > 49.2 | 8.11 µM | > 57.8 µM | > 67.5 | 19.4 | > 100 | > 61 µM | 4.65 | 2.26 | 7.18 | 2.97 | 1.18 | 2.01 | 3.34 | 0.984 | 2.48 | 0.774 |
| c1ccc(Cn2cc3c(c2-c2ccccc2)CCc2cnoc2-3)cc1 | > 100 µM | 69.2 µM | > 100 µM | 61.2 | 12.8 µM | > 100 µM | 63.4 | > 100 | > 100 | > 100 µM | 7.33 | 4.92 | 33 | 4.94 | 2.79 | 7.36 | 3.27 | 4.5 | 8.22 | 4.48 |
| CCCCCCCCCCCCCC(=O)O[C@H]1CC[C@H](NC(=O)[C@H](OC)[C@H](O)[C@@H](O)[C@H](O)/C=C/C(C)C)C(=O)NC1 | 51.2 µM and > 100 µM | 4.77 µM and 0.5 µM | 51.2 µM and > 100 µM | 0.283 | 1.37 µM and 0.25 µM | 51.2 µM and > 100 µM | 38.8 | > 100 |  | 0.0143 µM and 0.045 µM |  |  |  |  |  |  |  |  |  |  |
| COc1ccc(-c2[nH]c3ccccc3c2C=C(C#N)C#N)cc1 | 2.12 µM | > 42.8 µM | > 100 µM | > 100 |  | 5.89 µM | 20.5 | > 100 | > 71.7 |  | 0.294 | 0.6 | 2.35 | 0.511 |  | 0.434 | 0.412 | 0.481 | 0.917 | 0.347 |

Reference: PubChem BioAssay (NCI)
